Consider two molecules from PMC3155477, “Cinnamon extract inhibits α-glucosidase activity and dampens postprandial glucose excursion in diabetic rats” (Nutrition & Metabolism, 2011).

Each structure is given as a SMILES string. Converted amounts (≈) assume the structure as drawn.

In experiment [1] the target is T1, rat-intestinal α-glucosidase (mammalian α-glucosidase).
T1 construct: gene Mgam; crude supernatant of sonicated rat-intestinal acetone powder (Sigma); native enzymes, not purified
Put plainly: p-nitrophenol release from PNPG. The note with it: PNPG substrate (20 μl of 1 mM added), 50 mM phosphate pH 6.8, 37°C, 5 min pre-incubation, 30 min. It counts as biochemical.

The test system of experiment [2] is T1, rat-intestinal α-glucosidase (mammalian α-glucosidase). Put plainly: Lineweaver-Burk plot, p-nitrophenol release. The format is biochemical. The note with it: no cinnamon extract; 0.5-4 mM PNPG, 37°C, 30 min. From the text: Lineweaver-Burk plot, p-nitrophenol release on rat-intestinal α-glucosidase (mammalian α-glucosidase)

What is called IC50 is the midpoint of a concentration-inhibition curve. In the case of `C[C@H]1O[C@H](O[C@H]2[C@H](O)[C@@H](O)[C@@H](O[C@H]3[C@H](O)[C@@H](O)C(O)O[C@@H]3CO)O[C@@H]2CO)[C@H](O)[C@@H](O)[C@@H]1N[C@H]1C=C(CO)[C@@H](O)[C@H](O)[C@H]1O` (some centres unmarked) [Acarbose], the concentration for half-maximal inhibition (IC50) in experiment [1] is 34.11 µg/mL (≈ 52.8 µM).
As usually defined, the Km is the substrate concentration at which the rate is half of its maximum. In the case of `O=[N+]([O-])c1ccc(O[C@H]2O[C@H](CO)[C@@H](O)[C@H](O)[C@H]2O)cc1` [p-Nitrophenyl-α-D-glucopyranoside], the Km in experiment [2] came to 850 µM.
